Assays:
Experiment in all cases: relative viability (nuclei count vs DMSO), 5 days (fraction); higher = more cells survive
Venetoclax + Pemetrexed = compound: CC1(C)CCC(CN2CCN(c3ccc(C(=O)NS(=O)(=O)c4ccc(NCC5CCOCC5)c([N+](=O)[O-])c4)c(Oc4cnc5[nH]ccc5c4)c3)CC2)=C(c2ccc(Cl)cc2)C1 [Venetoclax] + Nc1nc2[nH]cc(CCc3ccc(C(=O)N[C@@H](CCC(=O)O)C(=O)O)cc3)c2c(=O)[nH]1 [Pemetrexed] (partner 0.2 µM)
How it was run: (§1)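 Medians of duplicate plates are given as relative viability. That measure is the nuclei count in treated wells divided by the count in vehicle wells. Counts were taken on 4× images of lung cancer cell lines in 1536-well plates, 5 days after pin-tool dosing the day after seeding with one drug alone or a fixed anchor-drug dose plus five library-drug doses (not always all listed) in √10 steps.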

Venetoclax + Olaparib = compound: CC1(C)CCC(CN2CCN(c3ccc(C(=O)NS(=O)(=O)c4ccc(NCC5CCOCC5)c([N+](=O)[O-])c4)c(Oc4cnc5[nH]ccc5c4)c3)CC2)=C(c2ccc(Cl)cc2)C1 [Venetoclax] + O=C(c1cc(Cc2n[nH]c(=O)c3ccccc23)ccc1F)N1CCN(C(=O)C2CC2)CC1 [Olaparib] (partner 8 µM)
How it was run: as §1

Selumetinib + Pictilisib = compound: Cn1cnc2c(F)c(Nc3ccc(Br)cc3Cl)c(C(=O)NOCCO)cc21 [Selumetinib] + CS(=O)(=O)N1CCN(Cc2cc3nc(-c4cccc5[nH]ncc45)nc(N4CCOCC4)c3s2)CC1 [Pictilisib] (partner 1 µM)
How it was run: as §1

Selumetinib + Vorinostat = compound: Cn1cnc2c(F)c(Nc3ccc(Br)cc3Cl)c(C(=O)NOCCO)cc21 [Selumetinib] + O=C(CCCCCCC(=O)Nc1ccccc1)NO [Vorinostat] (partner 1 µM)
How it was run: as §1

Cell Line	relative viability (Venetoclax + Pemetrexed; first compound 0.01 µM)	relative viability (Venetoclax + Pemetrexed; first compound 0.03162 µM)	relative viability (Venetoclax + Pemetrexed; first compound 0.1 µM)	relative viability (Venetoclax + Pemetrexed; first compound 0.3162 µM)	relative viability (Venetoclax + Pemetrexed; first compound 1 µM)	relative viability (Venetoclax + Olaparib; first compound 0.01 µM)	relative viability (Venetoclax + Olaparib; first compound 0.03162 µM)	relative viability (Venetoclax + Olaparib; first compound 0.1 µM)	relative viability (Venetoclax + Olaparib; first compound 0.3162 µM)	relative viability (Venetoclax + Olaparib; first compound 1 µM)	relative viability (Selumetinib + Pictilisib; first compound 0.02 µM)	relative viability (Selumetinib + Pictilisib; first compound 0.06325 µM)	relative viability (Selumetinib + Pictilisib; first compound 0.2 µM)	relative viability (Selumetinib + Pictilisib; first compound 0.6325 µM)	relative viability (Selumetinib + Vorinostat; first compound 0.02 µM)	relative viability (Selumetinib + Vorinostat; first compound 0.06325 µM)	relative viability (Selumetinib + Vorinostat; first compound 0.2 µM)	relative viability (Selumetinib + Vorinostat; first compound 0.6325 µM)
NCI-H322M	0.606	0.581	0.598	0.627	0.596	0.738	0.799	0.76	0.764	0.785	0.428	0.415	0.446	0.373	0.946	0.638	0.653	0.758
NCI-H358	0.176	0.176	0.187	0.178	0.179	0.567	0.651	0.575	0.773	0.579	0.316	0.302	0.314	0.277	0.422	0.335	0.265	0.248
NCI-H441	0.274	0.271	0.243	0.253	0.244	0.627	0.646	0.568	0.611	0.582	0.472	0.363	0.306	0.292	0.843	0.868	0.783	0.778
NCI-H460	0.062	0.0571	0.0565	0.0577	0.064	0.39	0.414	0.359	0.44	0.398	0.272	0.249	0.207	0.209	0.48	0.492	0.428	0.228
NCI-H520	0.781	0.73	–	0.626	0.646	0.388	0.315	–	0.327	0.387	0.293	0.24	0.31	0.292	0.774	0.73	0.785	0.71
NCI-H596	0.473	0.495	0.461	0.488	0.486	0.764	0.709	0.711	0.696	0.759	0.372	0.333	0.31	0.296	0.368	0.557	0.578	0.606
NCI-H647	0.164	0.192	0.206	0.178	0.178	0.521	0.698	0.424	0.564	0.535	0.422	0.384	0.173	0.318	0.697	0.38	0.727	0.712
NCI-H650	0.911	1.02	1.03	0.89	0.836	0.356	0.425	0.375	0.383	0.365	1	0.912	0.887	0.993	0.552	0.778	0.72	0.805
NCI-H661	0.933	0.922	0.861	0.897	0.901	0.745	0.789	0.715	0.74	0.708	0.496	0.39	0.347	0.577	0.882	0.772	0.75	0.799
NCI-H838	0.246	0.261	0.264	0.234	0.24	0.784	0.758	0.824	0.776	0.764	0.458	0.314	0.321	0.339	0.644	0.54	0.654	0.636
NCI-H1355	1.02	1.08	1.01	1.08	1.01	0.772	0.815	0.774	0.734	0.757	0.369	0.409	0.315	0.296	0.561	0.529	0.488	0.382
NCI-H1395	0.823	0.862	0.764	0.95	0.819	0.451	0.484	0.447	0.473	0.427	0.598	0.577	0.569	0.639	0.761	0.613	0.653	0.775
NCI-H1437	0.309	0.316	0.328	0.309	0.308	0.607	0.616	0.624	0.615	0.601	0.237	0.178	0.157	0.149	0.749	0.7	0.576	0.429
NCI-H1650	0.343	0.361	0.405	0.431	0.356	0.763	0.733	0.994	0.592	0.745	0.53	0.44	0.524	0.525	0.569	0.526	0.408	0.587
NCI-H1651	0.628	0.674	0.561	0.529	0.57	0.157	0.204	0.171	0.171	0.188	0.536	0.51	0.511	0.522	0.554	0.552	0.564	0.572
NCI-H1666	0.726	0.916	0.919	0.805	0.799	0.77	0.741	0.711	0.759	0.62	0.346	0.22	0.264	0.239	1.02	0.902	1.06	0.86
NCI-H1734	0.417	0.459	0.399	0.422	0.393	0.598	0.656	0.662	0.634	0.634	0.486	0.363	0.438	0.438	0.787	0.814	0.694	0.85
NCI-H1755	0.39	0.475	0.397	0.441	0.407	0.879	0.873	0.917	0.832	0.831	0.446	0.426	0.342	0.365	0.821	0.68	0.726	0.852
NCI-H1793	0.944	0.976	0.732	0.799	0.713	0.867	0.892	0.883	0.806	0.712	0.288	0.286	0.314	0.28	0.512	0.422	0.445	0.365
NCI-H1915	0.405	0.499	0.484	0.517	0.476	0.275	0.288	0.264	0.272	0.231	0.889	0.716	0.454	0.448	0.598	0.492	0.504	0.377
NCI-H1944	0.669	0.592	0.571	0.607	0.589	0.627	0.394	0.392	0.418	0.406	0.338	0.337	0.275	0.319	0.562	0.448	0.441	0.491
NCI-H1975	0.261	0.279	0.276	0.309	0.281	0.754	0.821	0.74	0.811	0.674	0.259	0.242	0.211	0.204	0.726	0.605	0.582	0.473
NCI-H1993	0.565	0.579	0.599	0.57	0.668	1.03	0.952	0.986	0.99	1.08	0.945	0.815	0.866	0.807	0.85	0.6	0.597	0.612
NCI-H2009	0.989	1.04	1.05	1	0.961	0.662	0.729	0.681	0.655	0.586	0.614	0.355	0.266	0.221	0.675	0.717	0.65	0.377
NCI-H2023	0.238	0.243	0.263	0.264	0.203	0.425	0.498	0.453	0.561	0.455	0.211	0.186	0.198	0.223	0.617	0.554	0.524	0.559
NCI-H2085	0.756	0.948	0.86	0.823	0.798	0.676	0.758	0.744	0.755	0.75	0.449	0.374	0.356	0.365	0.76	0.757	0.739	0.718
NCI-H2087	0.7	0.65	0.785	0.707	0.668	0.611	0.736	0.45	0.567	0.692	0.552	0.405	0.329	0.267	0.582	0.258	0.514	0.445
NCI-H2126	0.748	0.737	0.67	0.653	0.611	0.85	0.936	0.838	0.915	0.913	0.477	0.434	0.408	0.416	0.727	0.664	0.595	0.583
NCI-H2170	0.25	0.278	0.259	0.259	0.253	0.57	0.639	0.573	0.615	0.591	0.27	0.306	0.276	0.249	0.905	0.74	0.705	0.786
